Experiment [1] addresses T1, HLA-A2 (Homo sapiens, UniProt P04439, D140Y/D185E/D98H/E176V/E277Q/G131W/G231S/I119V/I121R/I166T/I218V/L300P/L318F/N151K/N90K/P208A/P217A/Q86G/Q94H/R138H/R169H/T345S).
T1 construct: empty HLA molecules released upon cell lysis, from the TAP-deficient cell line T2; endogenous in cells; host or cells: T2 (TAP-deficient cell line), metabolically labelled with [35S]-methionine and lysed
Briefly: Assembly assay for peptide binding to MHC class I molecules (stabilisation of HLA from TAP-deficient T2 cells). The settings on record: recovery of HLA-A2 measured at 50, 5, 0.5, 0.05 μM peptide. The procedure:
This assembly assay is carried out as described previously (2), and it is based on stabilisation of the HLA molecule after loading of peptide to the peptide transporter deficient cell line T2. Subsequently, correctly folded stable HLA heavy chains are immunoprecipitated using conformation dependent antibodies and the peptide binding is quantitated.
The binding affinity of the synthetic peptides (Invitrogen, Carlsbad, Calif., USA) to HLA-A2 molecules, metabolically labelled with [^35S]-methionine, was measured in the assembly assay, as described previously. The assay is based on peptide-mediated stabilisation of empty HLA molecules released upon cell lysis, from the TAP-deficient cell line T2. Stably folded HLA-molecules were immune-precipitated using the HLA class I-specific, conformation-dependent mAb W6/32, and separated by isoelectric focusing (IEF) gel electrophoresis. MHC heavy chain bands were quantified using the ImageGauge Phosphorimager program (FUJI photo film Co., Carrollton, Tex., USA). The intensity of the band is directly related to the amount of peptide-bound class I MHC complex recovered during the assay. Subsequently, the extent of stabilisation of HLA-A2 is directly related to the binding affinity of the added peptide. The recovery of HLA-A2 was measured in the presence of 50, 5, 0.5, 0.05 μM of the relevant peptide. The C50 value was calculated for each peptide as the peptide concentration sufficient for half maximal stabilisation.
The amino acid sequence of the Bcl-2 protein was screened for the most probable HLA-A2 nona- and decamer peptide epitopes, using the main HLA-A2 specific anchor residues (2). […] The assembly assay is based on stabilisation of the class I molecule after loading of different concentrations of peptide to the TAP-deficient cell line T2. Subsequently correctly folded stable MHC heavy chains are immunoprecipitated using conformation-dependent antibodies.

Experiment [2] deals with peptide epitope-specific interferon-γ releasing effector cells in PBL. The experiment is described as follows: IFN-γ ELISPOT on PBL stimulated once in vitro with peptide. It counts as cell-based, human. The settings on record: for patients with spontaneous CTL response / patients with spontaneous CTL response (%): PBL from 15 HLA-A2 positive breast cancer patients; for CTL response in cancer patients of different origin (in words): PBL from HLA-matched cancer patients; for pancreatic cancer patients with response: two HLA-A3+ pancreatic cancer patients; for healthy individuals with CTL response: 12 healthy HLA-A2 positive individuals; for breast cancer patients hosting an immune response: eighteen HLA-A2+ breast cancer patients; for breast cancer patients hosting an immune response / melanoma patients hosting an immune response: responder >25 spots per 10^5 cells; for melanoma patients hosting an immune response: six HLA-A2+ melanoma patients; for pancreatic cancer patients with CTL response: two HLA-A2 positive pancreatic cancer patients. The protocol:
To extend the sensitivity of the ELISPOT assay, PBL were stimulated once in vitro prior to analysis. At day 0, PBL or crushed lymph nodes were thawed and plated in 2 ml/well at a concentration of 2×10^6 cells in 24-well plates (Nunc, Denmark) in X-vivo medium (Bio Whittaker, Walkersville, Md.), 5% heat-inactivated human serum, and 2 mM of L-glutamine in the presence of 10 μM of peptide. Two days later 20 IU/ml recombinant interleukin-2 (IL-2) (Chiron, Ratingen, Germany) was added to the cultures. The cultured cells were tested for reactivity in the ELISPOT on day 12.
The ELISPOT assay was used to quantify peptide epitope-specific interferon-γ releasing effector cells as described previously (4). Briefly, nitrocellulose bottomed 96-well plates (MultiScreen MAIP N45, Millipore, Hedehusene, Denmark) were coated with anti-IFN-γ antibody (1-D1K, Mabtech, Nacka, Sweden). The wells were washed, blocked by X-vivo medium, and cells added in duplicates at different cell concentrations. Peptides were then added to each well and the plates were incubated overnight. The following day, media was discarded and the wells were washed prior to addition of biotinylated secondary antibody (7-B6-1-Biotin, Mabtech). The plates were incubated for 2 hours, washed and Avidin-enzyme conjugate (AP-Avidin, Calbiochem, Life Technologies) was added to each well. Plates were incubated at RT for 1 hour and the enzyme substrate NBT/BCIP (Gibco, Life Technologies) was added to each well and incubated at RT for 5-10 min. The reaction was terminated by washing with tap-water upon the emergency of dark purple spots. The spots were counted using the ImmunoSpot® Series 2.0 Analyzer (CTL Analyzers, LLC, Cleveland, US) and the peptide specific CTL frequency could be calculated from the numbers of spot-forming cells. All assays were performed in triplicates for each peptide antigen.

Experiment [3] concerns antigen-specific CTL in PBL. Briefly: Granzyme B (GrB) ELISPOT. It is filed as cell-based, human. The settings on record: breast cancer patient no. 16 and healthy control h1. The procedure: The Granzyme B (GrB) ELISPOT assay was used for measuring antigen-specific CTL cytotoxicity as described. Briefly, nitrocellulose bottomed 96-well plates (MultiScreen MAIP N45, Millipore) were coated with GrB Capture Antibody (BD Biosciences, Brondby, Denmark). The wells were washed and blocked by X-vivo medium with 5% human serum. The cells were added at different cell concentrations. T2 cells and peptides were then added to each well and the plates were incubated 4 hours, medium was discarded and the wells were washed prior to addition of GrB Detection Antibody (BD Biosciences). The plates were incubated for 2 hours, washed and Avidin horseradish peroxidase (BD Biosciences) was added to each well. Plates were incubated at RT for 1 hour AEC Substrate Reagent (BD Biosciences) was added to each well and incubated at RT for 5-10 min. The reaction was terminated by washing with tap-water upon the emergency of red spots. The spots were counted and the peptide specific CTL frequency was calculated like for the INF-γ ELISPOT. All assays were performed in duplicate or triplicates for each peptide antigen.

[4] abbreviates: C50 (concentration of the peptide required for half maximal binding to HLA-A2).
The mark [5] stands for this setting: read-out: C50 (concentration of the peptide required for half maximal binding to HLA-A2).
[6] abbreviates: four HLA-A1+ breast cancer patients.
Setting [7] is: seven HLA-A1+ melanoma patients.
The mark [8] stands for this setting: six healthy HLA-A1+ individuals.
Where [9] appears, read: six HLA-A3+ breast cancer patients, 3×10^5 cells per well, Mcl-1 study.

“And” between values parts separate entries of the source, which are not always exact repeats. Equal entries are not always repeated. Where two headings read alike, the source gives them in different places. Ends that are not written are not given here.

In the case of AAAGPALSPV [bcl80], in experiment [1] (setting [4]), the EC50 was 36000 nM.

ALSPVPPVV [Bcl85]: the EC50 in experiment [1] (setting [5]) was 1000 nM.

On to ALVGACITL [Bcl224], for which the EC50 in experiment [1] (setting [5]) came to 700 nM.

Regarding ELYGPSMRPL [bcl200], the “C50 (concentration of the peptide required for half maximal binding to HLA-A2)” value in experiment [1] is “did not bind”.

In the case of FTARGRFATV [bcl124], the EC50 in experiment [1] (setting [5]) came to 1000 nM.

Regarding KTLLSLALV [bcl218], the EC50 in experiment [1] (setting [4]) turned out to be 2000 nM.

Take LLSLALVGA [bcl220]: in experiment [1] (setting [5]), the EC50 was 1000 nM.

As for NIALWMTEYL [bcl172], in experiment [1] (setting [5]), the EC50 was 2000 nM. Moreover, in experiment [2], the “patients with spontaneous CTL response” value was “eight” and the “patients with spontaneous CTL response (%)” value (“patients … (%)” below) was found to be 50%.

In the case of “PAEEEEDDLY (Peptide derived from Mcl-1) [Mcl-1166-175]”, in experiment [2], the “CTL response in cancer patients of different origin (in words)” value was “CTL responses were detected”. For the same sequence, in experiment [2] (setting [6]), the “breast cancer patients with response” value is on record as “one of these”. Also, in experiment [2] (setting [7]), the “melanoma patients with response” value is listed as “another of these”. Besides, the “healthy donors with response” value in experiment [2] (setting [8]) was “no responses were detected”.

Turning to “QSLEIISRY (Peptide derived from Mcl-1) [Mcl-1177-185]”, in experiment [2], the “CTL response in cancer patients of different origin (in words)” value is given as “CTL responses were detected”. Besides, the “breast cancer patients with response” value in experiment [2] (setting [6]) is given as “three out of four”. For the same sequence, the “melanoma patients with response” value in experiment [2] (setting [7]) is “one out of seven”. The “healthy donors with response” value in experiment [2] (setting [8]) is on record as “no responses were detected”.

“RIAAWMATY (Peptide derived from Bcl-XL) [Bcl-XL165-173]”: in experiment [2] (HLA-A3+ multiple myeloma patients), the “multiple myeloma patients with response” value was “one out of four”. Further, the “CTL response in cancer patients of different origin (in words)” value in experiment [2] was “strong and frequent CTL responses”. Besides, the “breast cancer patients with response” value in experiment [2] (five HLA-A3+ breast cancer patients, 10^5 cells per well) is “four out of five”. Further, the “melanoma patients with response” value in experiment [2] (four HLA-A3+ melanoma patients) is reported as “four out of four”. The “healthy individuals with response” value in experiment [2] (seven HLA-A3+ healthy individuals) was “not able to detect a response”. In experiment [2] (Bcl-XL study), the “pancreatic cancer patients with response” value is listed as “two out of two”.

Take “RIAAWMATYL (Peptide derived from Bcl-XL) [Bcl-XL165-174]”: in experiment [2], the “healthy individuals with CTL response” value is listed as “no responses were detected”; the “CTL response in cancer patients of different origin (in words)” value was “strong and frequent CTL responses”; the “breast cancer patients hosting an immune response” value is on record as “four”; the “melanoma patients hosting an immune response” value is on record as “two”. Besides, the “pancreatic cancer patients with CTL response” value in experiment [2] is on record as “one”.

Consider “RLKRDWLVK (Modified Mcl-1 peptide) [Mcl-1300-308L2]”, for which the “breast cancer patients with spontaneous immune response” value in experiment [2] (number examined not given, data not shown) was “two”.

Take “RLLFFAPTR (Peptide derived from Mcl-1) [Mcl-195-103]”: in experiment [2] (10 healthy HLA-A3+ individuals), the “healthy donors with response” value is “no responses were detected”. Further, the “CTL response in cancer patients of different origin (in words)” value in experiment [2] is “strong and frequent CTL responses”. In addition, the “breast cancer patients with response” value in experiment [2] (setting [9]) is “five”. The “B-CLL patients with response” value in experiment [2] (six HLA-A3+ patients suffering from B-CLL) is reported as “two”. Moreover, the “pancreatic cancer patients with response” value in experiment [2] (Mcl-1 study) is reported as “two out of two”.

For “RTKRDWLVK (Peptide derived from Mcl-1) [Mcl-1300-308]”, the “healthy donors with response” value in experiment [2] (10 healthy HLA-A3+ individuals) was “no responses were detected”. Moreover, the “CTL response in cancer patients of different origin (in words)” value in experiment [2] is “strong and frequent CTL responses”. For the same sequence, the “breast cancer patients with response” value in experiment [2] (setting [9]) is on record as “three”. Also, in experiment [2] (Mcl-1 study), the “pancreatic cancer patients with response” value is reported as “one of these”.

Turning to SLALVGACI [bcl222], in experiment [1] (setting [5]), the EC50 was determined as 1000 nM.

SLKTLLSLAL [bcl216, SLKTLLSLAL]: in experiment [1], the “C50 (concentration of the peptide required for half maximal binding to HLA-A2)” value is recorded as “did not bind”.

On to “TAYQSFEQV (Peptide derived from Bcl-XL) [Bcl-XL118-126]”, for which, in experiment [2], the “CTL response in cancer patients of different origin (in words)” value is given as “weak spontaneous CTL response”.

As to “VAFFSFGGAL (Peptide derived from Bcl-XL) [Bcl-XL141-150]”, in experiment [2], the “healthy individuals with CTL response” value is on record as “no responses were detected”; the “CTL response in cancer patients of different origin (in words)” value was “strong and frequent CTL responses”; the “breast cancer patients hosting an immune response” value is given as “Four out of eighteen”; the “melanoma patients hosting an immune response” value is “not able to detect a response”. Further, the “pancreatic cancer patients with CTL response” value in experiment [2] was “one of the two”.

On to “VLVSRIAAWM (Peptide derived from Bcl-XL) [Bcl-XL161-170]”, for which, in experiment [2], the “healthy individuals with CTL response” value was “no responses were detected”; the “CTL response in cancer patients of different origin (in words)” value is “strong and frequent CTL responses”; the “breast cancer patients hosting an immune response” value is “six”; the “pancreatic cancer patients with CTL response” value is “one”.

As to WLSLKTLLSL [bcl214], the “GrB release in controls” value in experiment [3] was “no GrB release was detected”. Also, in experiment [1] (setting [5]), the EC50 came out at 3000 nM. Also, in experiment [2], the “patients with spontaneous CTL response” value is “eleven”, the “patients … (%)” value was “≈ 75%” and the “pancreatic cancer patients with CTL response” value is on record as “both”. Also, the “CLL patients with Bcl-2 response” value in experiment [2] (ten HLA-A2 positive CLL patients, reactivity against bcl208 and bcl214, not broken down by peptide) is recorded as “five”. In addition, the “AML patients with Bcl-2 response” value in experiment [2] (three AML patients, reactivity against bcl208 and bcl214, not broken down by peptide) is listed as “two”.

On to “WMATYLNDHL (Peptide derived from Bcl-XL) [Bcl-XL169-178]”, for which the “CTL response in cancer patients of different origin (in words)” value in experiment [2] was “weak spontaneous CTL response”.

Take YLNRHLHTWI [bcl180]: the EC50 in experiment [1] (setting [5]) was 20000 nM and 15000 nM. Further, in experiment [2], the “patients with spontaneous CTL response” value is recorded as “four” and the “patients … (%)” value is recorded as “≈ 25%”.

Source of the values: patent US7842294B2, “Proteins belonging to the Bcl-2 family and fragments thereof, and their use in cancer patients” (Survac APS, priority 2003, dated 2010).
